In ChEMBL document CHEMBL5058564, “EUbOPEN Chemogenomics Library 2 (Incucyte)” (2022):

Key:
Assay type in all cases: toxicity, cell-based
Fibroblast = assay: Incucyte cell viability with human fibroblast; details: 10 µM, compound concentration 10 uM
U2OS = assay: Incucyte cell viability with U2OS; details: human, 10 µM, compound concentration 10 uM
HEK-293T = assay: Incucyte cell viability with HEK293T; details: human, 10 µM, compound concentration 10 uM
[1] = 6 h, replicate number 1, timepoint 6 hours
[2] = 6 h, replicate number 2, timepoint 6 hours
[3] = 12 h, replicate number 1, timepoint 12 hours
[4] = 12 h, replicate number 2, timepoint 12 hours
[5] = 18 h, replicate number 1, timepoint 18 hours
[6] = 18 h, replicate number 2, timepoint 18 hours
[7] = 24 h, replicate number 1, timepoint 24 hours
[8] = 24 h, replicate number 2, timepoint 24 hours
[9] = 0 h, replicate number 1, timepoint 0 hours
[10] = 0 h, replicate number 2, timepoint 0 hours
Also: unitless GR value; below 1 slowed growth and below 0 cell loss.

SMILES | Growth Rate (Fibroblast; [1]) | Growth Rate (Fibroblast; [2]) | Growth Rate (Fibroblast; [3]) | Growth Rate (Fibroblast; [4]) | Growth Rate (Fibroblast; [5]) | Growth Rate (Fibroblast; [6]) | Growth Rate (Fibroblast; [7]) | Growth Rate (Fibroblast; [8]) | Growth Rate (U2OS; [4]) | Growth Rate (U2OS; [5]) | Growth Rate (U2OS; [6]) | Growth Rate (U2OS; [7]) | Growth Rate (U2OS; [8]) | Growth Rate (HEK-293T; [1]) | Growth Rate (HEK-293T; [2]) | Growth Rate (HEK-293T; [3]) | Growth Rate (HEK-293T; [4]) | Growth Rate (HEK-293T; [5]) | Growth Rate (HEK-293T; [7]) | Growth Rate (HEK-293T; [8]) | further results
CC(C)(C)c1ccc(-c2coc3ccc(-c4cn[nH]c4)nc23)cc1 | -0.89 | -0.35 | -0.7 | 0 | -0.62 | 0.05 | -0.48 | 0.09 | 0.79 | 0.76 | 0.53 | 0.69 | 0.43 | 0.36 | 0.2 | 0.44 | 0.39 | 0.66 | 0.67 | 0.62 | Growth Rate (U2OS; [9]): 0.4
O=C1NCc2ccc3c(-c4cccc(Cl)c4)c[nH]c3c21 | -0.99 | -0.83 | -0.86 | -0.4 | -0.65 | -0.18 | -0.39 | 0.01 | -0.24 | 0.03 | -0.24 | -0.13 | -0.28 | -0.52 | -0.56 | -0.31 | -0.09 | -0.21 | -0.19 | -0.07 | Growth Rate (U2OS; [9]): -0.28; Growth Rate (U2OS; [10]): 0.01; Growth Rate (U2OS; [1]): 0.17; Growth Rate (U2OS; [2]): -0.08; Growth Rate (U2OS; [3]): 0.07; Growth Rate (HEK-293T; [6]): -0.1
NC(=O)c1cccc(-c2cc(Nc3ccc(OC(F)(F)F)cc3)ncn2)c1 | -0.84 | 0.58 | -0.48 | 0.37 | -0.35 | 0.53 | -0.05 | 0.46 |  |  | 0.93 | 0.94 |  | -0.43 | 0.03 | 0.03 | 0.25 | 0.18 | 0.26 | 0.48 | Growth Rate (U2OS; [3]): 0.98; Growth Rate (HEK-293T; [6]): 0.3
CN(c1ncccc1CNc1ccnc(-c2cc3cc(Cl)ccc3[nH]2)n1)S(C)(=O)=O | -0.63 | -0.2 | -0.43 | -0.15 | -0.12 | -0.08 | 0.15 | 0.04 | 0.71 | 0.58 | 0.74 | 0.61 | 0.7 | -0.71 | -0.53 | -0.48 | -0.31 | -0.36 | -0.24 | -0.09 | Growth Rate (U2OS; [9]): -0.74; Growth Rate (U2OS; [10]): 1; Growth Rate (U2OS; [1]): 0.59; Growth Rate (U2OS; [3]): 0.52; Growth Rate (HEK-293T; [6]): -0.25
CN(C)C/C=C/C(=O)Nc1ccc(C(=O)N2CCCC(Nc3ncc(Cl)c(-c4c[nH]c5ccccc45)n3)C2)cc1 (configuration not stated) | -0.96 | -0.55 | -0.75 | -0.33 | -0.7 | -0.1 | -0.55 | -0.06 | 0.63 | 0.27 | 0.26 | 0.09 | 0.13 | -0.75 | -0.93 | -0.58 | -0.66 | -0.42 | -0.27 | -0.31 | Growth Rate (U2OS; [9]): -0.56; Growth Rate (U2OS; [10]): 0.12; Growth Rate (U2OS; [1]): 0.53; Growth Rate (U2OS; [3]): 0.51; Growth Rate (HEK-293T; [6]): -0.43
CO/C1=C/C(C)=C\[C@@H](C)[C@@H](O)[C@@H](C)C/C(C)=C\C=C/[C@H](OC)C([C@@H](C)[C@@H](O)[C@H](C)[C@@]2(O)C[C@@H](O)[C@H](C)[C@@H](C(C)C)O2)OC1=O (some centres not stated) | -0.77 | -0.59 | -0.79 | -0.56 | -0.72 | -0.46 | -0.61 | -0.4 | 0.39 | 0.23 | 0.18 | 0.14 | 0.12 | -0.8 | -0.9 | -0.61 | -0.69 | -0.45 | -0.36 | -0.38 | Growth Rate (Fibroblast; [9]): 0.09; Growth Rate (Fibroblast; [10]): -0.31; Growth Rate (U2OS; [1]): 0.5; Growth Rate (U2OS; [2]): 0.63; Growth Rate (U2OS; [3]): 0.37; Growth Rate (HEK-293T; [6]): -0.5
